In BindingDB's records for patent US9718819 (Merck Sharp & Dohme, 2017):

The compounds below were run against Gag-Pol polyprotein (Human immunodeficiency virus type 1 group M subtype B (isolate HXB2), UniProt P04585) (assay: HIV-1 Reverse Transcriptase Inhibitory Assay). Settings: pH 7.8; 25 °C.
Source text: The heterodimeric nucleic acid substrate used in the HIV-1 RT polymerase reactions was generated by annealing the DNA primer, biotinylated pD500 (Sigma Aldrich, USA, 5′-biotin-ttg aaa tga ctg cgg tac ggc-3′), SEQ ID NO. 1 to the nucleotide RNA template t500 (derived from hepatitis C virus [HCV] sequence, IBA, Germany, 5′-GAGGUUCAGGUGGUUUCCACCGCAACACAAUCCUUCCUGGCGACCUGCGUCAACGGCGUGUGUUGGACCGUUUACCAUGGUGCUGGCUCAAAGACCUUAGCCGGCCCAAAGGGGCCAAUCACCCAGAUGUACACUAAUGUGGACCAGGACCUCGUCGGCUGGCAGGCGCCCCCCGGGGCGCGUUCCUUGACACCAUGCACCUGUGGCAGCUCAGACCUUUACUUGGUCACGAGACAUGCUGACGUCAUUCCGGUGCGCCGGCGGGGCGACAGUAGGGGGAGCCUGCUCUCCCCCAGGCCUGUCUCCUACUUGAAGGGCUCUUCGGGUGGUCCACUGCUCUGCCCUUCGGGGCACGCUGUGGGCAUCUUCCGGGCUGCCGUAUGCACCCGGGGGGUUGCGAAGGCGGUGGACUUUGUGCCCGUAGAGUCCAUGGAAACUACUAUGCGGUCUCCGGUCUUCACGGACAACUCAUCCCCCCCGGCCGUACCGCAGUCAUUUCAA-3′), SEQ ID NO 2). […] The mixture was then preincubated on an orbital shaker for 30 min at room temperature in microtiter plates (Costar 3365, Corning, USA). A polymerization reaction was initiated by the addition of RNA template/pD500 DNA primer hybrid (16.6 nM final of RNA/DNA hybrid) and dNTPs (2 μM dATP, dGTP, dCTP and 66.6 nM Ru-dUTP (Meso Scale Discovery, USA)). Plate was sealed and incubated for 5-10 min at room temperature on an orbital shaker. Plate was then incubated for 90 min at 37° C. and reactions quenched with 60 μl quenching buffer (50 mM EDTA, 0.7% BSA, 0.7% Tween-20, 0.017% sodium azide in PBS). The resulting solution was incubated at room temperature for an additional 5 min and then 50 μL was transferred to pre-blocked Avidin plates (L15AA, Meso Scale Discovery). Each well of Avidin plate was blocked for 1 h at room temperature with 100 μL 5% BSA in PBS. Blocking solution was removed by tapping vigorously on filter paper to remove all excess liquid. Reaction on pre-blocked avidin plate proceeded for 60 min at room temperature and then contents removed by tapping vigorously on filter paper to remove all excess liquid. After washing plate 3 times with 150 μL 1×PBS and blotting dry between cycles, 150 μL 1× Read Buffer T (4× Read Buffer T, Meso Scale Discovery) was added and incubated for 5 min at room temperature before counting on a Sector Imager […] (Meso Scale Discovery). Titration curves and IC50 values were calculated using a four parameter logisitc fit according to standard procedures. Briefly, % Inhibition=100×((sample raw value)−(mean value of the low control or 0% inhibition))/((mean value of wells representing 100% inhbition)−(mean value of 0% inhbition)). […]
Compound `Cn1[nH]c(=O)c(Cn2cnc(C(F)(F)F)c(Oc3cc(Cl)cc(C#N)c3)c2=O)cc1=O` [US9718819, 127] has an IC50 of 0.434 µM.
`COc1cc(-c2cc(Cn3cnc(C(F)(F)F)c(Oc4cc(Cl)cc(C#N)c4)c3=O)n[nH]c2=O)ccn1` [US9718819, 79] gave an IC50 of 0.006 µM.
Compound `Cc1cncc(-c2cc(Cn3cnc(C(F)(F)F)c(Oc4cc(Cl)cc(C#N)c4)c3=O)n[nH]c2=O)c1` [US9718819, 80] has an IC50 of 0.014 µM.
`N#Cc1cc(Cl)cc(Oc2c(C(F)(F)F)ncn(Cc3cc(-c4cn[nH]c4)n[nH]c3=O)c2=O)c1` [US9718819, 118] was tested, and the IC50 was 0.007 µM.
